Test results taken from US6391873B1, “Imidazodiazepine derivative” (priority 1999, dated 2002).

Columns and labels:
mice [1] = test: withdrawal signs in chronically treated mice challenged with a benzodiazepine receptor antagonist; conditions: chronically treated mice challenged with benzodiazepine receptor antagonist (e.g., sarmazenil)
mice [2] = test: mouse operant conflict model of anxiety; conditions: oral bolus circa 30 min prior to conflict test; punished responding
[3] = tested on: cytochrome P450 isoenzymes; test: inhibition of cytochrome P450 isoenzymes
rats [4] = test: fatalities after i.v. administration in rats; format: in vivo; conditions: 100 mg/kg i.v.
animals = test: anticonvulsant effects in animals; format: in vivo; conditions: low doses
rats [5] = test: cognitive impairment in rats
mice [6] = test: fatalities after i.v. administration in mice (rotarod test); format: in vivo, mouse; conditions: up to 100 mg/kg i.v.
mice [7] = test: ethanol interaction in mice
benzodiazepine receptors = test: 3H-flumazenil in vitro binding assay using homogenized rat cortex; conditions: inhibition of binding of tritiated flumazenil
Method: The preclinical pharmacological profile of the compound of the present invention for treatment of anxiety disorders, and/or treatment of convulsions and/or non-sedative treatment of sleep disorders involves no, or only minimal motor impairment, in a standard test of motor performance in animals (e.g. rotarod test in mice with motor function evaluated in the same animals at different time points up to 1 hour after intravenous injection).
The affinity of the compound of the invention to the central benzodiazepine receptors was established in vitro according to the methods described in Nature 294, 763-765 (1981) and J. Neurochemistry 37, 714-722 (1981). According to these methods, the inhibition of the binding of tritiated flumazenil to the specific benzodiazepine receptors in the cortex of rats by the respective test substance is determined. The affinity was calculated as pKi (for background information on pKi see: Cheng, Y. and W. H. Prusoff, Relationship between the inhibition constant (Ki) and the concentration of inhibitor which causes 50 percent inhibition (IC50) of an enzymatic reaction. Biochem. Pharmac. 22: 3099-3108, 1973) as the measure of the specific binding of tritiated flumazenil to specific benzodiazepine receptors in the cortex of rat.

mice [8] = test: rotating rod test (rotarod test), motor impairment; format: in vivo, mouse; conditions: for ED50 for a rotarod deficit: consistently at different time points up to 1 hour after intravenous injection
Method: The motor impairing properties of the compound of the invention can be determined, for example, in the rotating rod test (rotarod test). […] These mice were housed in Macrolon® type I cages for one or more days following arrival in the laboratory colony (12:12 hour light-dark cycle). They have free access to a standard rodent diet (Kliba Mühlen, Kaiseraugst, Switzerland) and tap water in the home cage up to testing. They are brought into the test laboratory at least 30 min before the test which was done during the light portion of the day-night cycle. In the rotating rod test the animals are placed on a horizontally arranged, smooth metal rod having a diameter of 3 cm, which is rotated at 2 revolutions per min. Initially, the animals are given the opportunity of familiarizing themselves with the test situation for at least 30 sec. Subsequently, those animals which succeed in remaining on the rod for at least 1 min are selected for use in the test. These selected animals are then given the test preparations intravenously in different dosages. At various points in time post-injection, it is then determined whether the animals are able to remain wallking on the rod for a minimum period (minimum period of 10 sec at time points 15 sec. 30 sec. 1 min and 2 min; minimum period of 1 min at time points 5 min, 15 min, 30 min, 60 min). The dosage at which 50% of the animals are capable of remaining on the rod (i.e., ED50) was determined at each of these time points.

mice [9] = test: tolerance of the anxiolytic effect in mice after chronic treatment

## CN(C)Cc1nc(-c2ncn3c2CN(C)C(=O)c2c(Cl)cccc2-3)no1 [compound of the invention, 7-Chloro-3-(5-dimethylaminomethyl-[1,2,4]oxadiazol-3-yl)-5-methyl-4,5-dihydro-imidazo[1,5-a][1,4]benzodiazepin-6-one]
Mice [1]
  withdrawal signs: minimal withdrawal signs
Mice [2]
  minimum effective dose (statistically significant anxiolytic-like effect): 3 mg/kg p.o.
[3]
  inhibition of cytochrome P450 isoenzymes: minimal or no inhibition
Rats [4]
  fatalities: without fatalities occurring
animals
  anticonvulsant effects: show anticonvulsant effects
Rats [5]
  cognitive impairment: minimal cognitive impairment
Mice [6]
  fatalities: without fatalities occurring
Mice [7]
  ethanol interaction: low ethanol interaction
Benzodiazepine receptors
  Affinity to benzodiazepine receptors: 9.1
Mice [8]; 15 sec after administration
  Rotating rod test ED50: >10 mg/kg i.v.
Mice [8]; 20 sec after administration
  Rotating rod test ED50: >10 mg/kg i.v.
Mice [8]; 60 sec after administration
  Rotating rod test ED50: >10 mg/kg i.v.
Mice [8]; 2 min after administration
  Rotating rod test ED50: >10 mg/kg i.v.
Mice [8]; 5 min after administration
  Rotating rod test ED50: >10 mg/kg i.v.
Mice [8]; 15 min after administration
  Rotating rod test ED50: >10 mg/kg i.v.
Mice [8]; 30 min after administration
  Rotating rod test ED50: >10 mg/kg i.v.
Mice [8]; 60 min after administration
  Rotating rod test ED50: >10 mg/kg i.v.
Mice [8]
  ED50 for a rotarod deficit: > 10 mg/kg i.v.
Mice [8]; listed as compound of the present invention
  ED50 for a rotarod deficit: greater than 10 mg/kg i.v.
Mice [9]
  reduction (so-called tolerance) of the anxiolytic effect: minimal reduction
